Consider 30 compounds from patent publication US11053251B2, “GPR35 modulators” (Prometheus Biosciences, Inc., priority 2019, dated 2021).

Some results are limits rather than exact numbers.

Human GPR35, sequence (Q9HC97 whole entry S294R): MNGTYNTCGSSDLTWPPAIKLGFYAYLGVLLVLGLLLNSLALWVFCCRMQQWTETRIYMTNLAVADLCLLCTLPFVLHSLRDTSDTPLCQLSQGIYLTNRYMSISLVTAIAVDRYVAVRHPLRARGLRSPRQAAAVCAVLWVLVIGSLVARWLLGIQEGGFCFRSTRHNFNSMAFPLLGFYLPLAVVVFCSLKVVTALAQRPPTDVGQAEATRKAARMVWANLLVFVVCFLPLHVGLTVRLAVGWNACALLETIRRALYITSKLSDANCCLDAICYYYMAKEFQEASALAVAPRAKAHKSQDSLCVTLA

For one test, the target named is Human GPR35 (Homo sapiens, UniProt Q9HC97, S294R). As to the kind of experiment: Alternative Beta-Arrestin Assay (JumpIn 294R Tango U2OS cells, LiveBLAzer-FRET B/G). It counts as cell-based. Conditions: Human GPR35 expressing JumpIn 294R Tango U2OS cells, 5 hours treatment. In outline:
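Beta-arrestin recruitment measured as FRET ratio change using CCF4-AM loading for 2 h, following 5-hour compound treatment of GPR35 (S294R) JumpIn Tango U2OS cells. Zaprinast served as positive control; EC50 values from four-parameter dose-response fits.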
Turning to `O=C(O)c1ccc(-c2ccc(-c3nc4[nH]nnc4c(=O)[nH]3)c(OC3CCCC3)c2)cc1O` [Compound 201, 3′-(Cyclopentyloxy)-3-hydroxy-4′-(7-oxo-6,7-dihydro-3H-[1,2,3]triazolo[4,5-d]pyrimidin-5-yl)-[1,1′-biphenyl]-4-carboxylic acid], the half-maximal effective concentration (EC50) was not above 10 µM.

Take `CCOc1cc(-c2cccc(/C=C(\C)C(=O)O)c2)ccc1-c1nc2[nH]nnc2c(=O)[nH]1` (single isomer, unassigned) [Compound 237, (E)-3-(3′-ethoxy-4′-(7-oxo-6,7-dihydro-3H-[1,2,3]triazolo[4,5-d]pyrimidin-5-yl)-[1,1′-biphenyl]-3-yl)-2-methylacrylic acid]: the EC50 is not above 10 µM.

`CC(C)OC(=O)COc1cccc(-c2ccc(-c3nc4[nH]nnc4c(=O)[nH]3)c(OC3CCCC3)c2)c1` [Compound 271, isopropyl 2-((3′-(cyclopentyloxy)-4′-(7-oxo-6,7-dihydro-3H-[1,2,3]triazolo[4,5-d]pyrimidin-5-yl)-[1,1′-biphenyl]-3-yl)oxy)acetate] displayed a half-maximal effective concentration (EC50) not above 10 µM.

`CCOc1cc(-c2cccc(CC(CC)C(=O)O)c2)ccc1-c1nc2[nH]nnc2c(=O)[nH]1` (stereo not drawn) [Compound 239, 2-((3′-ethoxy-4′-(7-oxo-6,7-dihydro-3H-[1,2,3]triazolo[4,5-d]pyrimidin-5-yl)-[1,1′-biphenyl]-3-yl)methyl)butanoic acid] had a half-maximal effective concentration (EC50) not above 10 µM.

With `COc1cc(-c2nc3[nH]nnc3c(=O)[nH]2)cc(OC)c1-c1ccc(C(=O)O)cc1` [Compound 196, 2′,6′-Dimethoxy-4′-(7-oxo-6,7-dihydro-3H-[1,2,3]triazolo[4,5-d]pyrimidin-5-yl)-[1,1′-biphenyl]-4-carboxylic acid], the EC50 was not above 10 µM.

`CCOc1cc(-c2cccc(CC(C)C(=O)OC)c2)ccc1-c1nc2[nH]nnc2c(=O)[nH]1` (stereo not drawn) [Compound 310, methyl 3-(3′-ethoxy-4′-(7-oxo-6,7-dihydro-3H-[1,2,3]triazolo[4,5-d]pyrimidin-5-yl)-[1,1′-biphenyl]-3-yl)-2-methylpropanoate] displayed an EC50 not above 10 µM.

In turn, `CCOc1cc(-c2ccc(OCCN3CCCC3)c(/C=C(\C)C(=O)O)c2)ccc1-c1nc2[nH]nnc2c(=O)[nH]1` [Compound 299, (E)-3-(3′-ethoxy-4′-(7-oxo-6,7-dihydro-3H-[1,2,3]triazolo[4,5-d]pyrimidin-5-yl)-4-(2-(pyrrolidin-1-yl)ethoxy)-[1,1′-biphenyl]-3-yl)-2-methylacrylic acid] registered an EC50 not above 10 µM.

Compound `CCOC(=O)Cc1cccc(-c2ccc(-c3nc4[nH]nnc4c(=O)[nH]3)c(OCC)c2)c1` [Compound 294, ethyl 2-(3′-ethoxy-4′-(7-oxo-6,7-dihydro-3H-[1,2,3]triazolo[4,5-d]pyrimidin-5-yl)-[1,1′-biphenyl]-3-yl)acetate] displayed an EC50 not above 10 µM.

On to `CCOc1cc(-c2ccc(OCCN(C)C)c(CCC(=O)O)c2)ccc1-c1nc2[nH]nnc2c(=O)[nH]1` [Compound 320, 3-(4-(2-(dimethylamino)ethoxy)-3′-ethoxy-4′-(7-oxo-6,7-dihydro-3H-[1,2,3]triazolo[4,5-d]pyrimidin-5-yl)-[1,1′-biphenyl]-3-yl)propanoic acid], for which the half-maximal effective concentration (EC50) was not above 10 µM.

In the case of `CCOc1cc(-c2cc(O)cc(O[C@@H](CC)C(=O)O)c2)ccc1-c1nc2[nH]nnc2c(=O)[nH]1` (single isomer, unassigned) [Compound 259], the EC50 was not above 10 µM.

Turning to `CCOc1cc(-c2cc(F)cc(O[C@@H](C)C(=O)O)c2)ccc1-c1nc2[nH]nnc2c(=O)[nH]1` (single isomer, unassigned) [Compound 263], the concentration for a half-maximal effect (EC50) was not above 10 µM.

Compound `CCOc1cc(-c2cccc(CCC(=O)O)c2)ccc1-c1nc2[nH]nnc2c(=O)[nH]1` [Compound 234, 3-(3′-ethoxy-4′-(7-oxo-6,7-dihydro-3H-[1,2,3]triazolo[4,5-d]pyrimidin-5-yl)-[1,1′-biphenyl]-3-yl)propanoic acid] came in with a half-maximal effective concentration (EC50) not above 10 µM.

For `CCOc1cc(-c2ccc(C(=O)O)c(OC)c2)ccc1-c1nc2[nH]nnc2c(=O)[nH]1` [Compound 206, 3′-Ethoxy-3-methoxy-4′-(7-oxo-6,7-dihydro-3H-[1,2,3]triazolo[4,5-d]pyrimidin-5-yl)-[1,1′-biphenyl]-4-carboxylic acid], the EC50 is not above 10 µM.

Compound `CCOc1cc(-c2ccc(O)c(OCC(=O)O)c2)ccc1-c1nc2[nH]nnc2c(=O)[nH]1` [Compound 281, 2-((3′-ethoxy-4-hydroxy-4′-(7-oxo-6,7-dihydro-3H-[1,2,3]triazolo[4,5-d]pyrimidin-5-yl)-[1,1′-biphenyl]-3-yl)oxy)acetic acid] returned a concentration giving a half-maximal response (EC50) not above 10 µM.

As to `CCOc1cc(-c2ccc(OCCN3CCCC3)c(/C=C/C(=O)O)c2)ccc1-c1nc2[nH]nnc2c(=O)[nH]1` [Compound 317, (E)-3-(3′-ethoxy-4′-(7-oxo-6,7-dihydro-3H-[1,2,3]triazolo[4,5-d]pyrimidin-5-yl)-4-(2-(pyrrolidin-1-yl)ethoxy)-[1,1′-biphenyl]-3-yl)acrylic acid], the EC50 is not above 10 µM.

`CCOc1cc(-c2ccc(C)c(OC(CC)C(=O)O)c2)ccc1-c1nc2[nH]nnc2c(=O)[nH]1` (stereo not drawn) [Compound 272, 2-((3′-ethoxy-4-methyl-4′-(7-oxo-6,7-dihydro-3H-[1,2,3]triazolo[4,5-d]pyrimidin-5-yl)-[1,1′-biphenyl]-3-yl)oxy)butanoic acid] came in with an EC50 not above 10 µM.

For the compound `CCOc1cc(-c2ccc(NC(C)=O)c(C(=O)O)c2)ccc1-c1nc2[nH]nnc2c(=O)[nH]1` [Compound 184, 4-acetamido-3′-ethoxy-4′-(7-oxo-6,7-dihydro-3H-[1,2,3]triazolo[4,5-d]pyrimidin-5-yl)-[1,1′-biphenyl]-3-carboxylic acid], the 50% effective concentration (EC50) was not above 10 µM.

`O=C(O)CNc1cccc(-c2ccc(-c3nc4[nH]nnc4c(=O)[nH]3)c(OC3CCCC3)c2)c1` [Compound 225, (3′-(Cyclopentyloxy)-4′-(7-oxo-6,7-dihydro-3H-[1,2,3]triazolo[4,5-d]pyrimidin-5-yl)-[1,1′-biphenyl]-3-yl)glycine] had an EC50 not above 10 µM.

Regarding `CCOc1cc(-c2cccc(O[C@H](CC)C(=O)O)c2)ccc1-c1nc2[nH]nnc2c(=O)[nH]1` (single isomer, unassigned) [Compound 253], the EC50 was not above 10 µM.

`CCOc1cc(-c2cccc(CC3(C(=O)O)CC3)c2)ccc1-c1nc2[nH]nnc2c(=O)[nH]1` [Compound 244, 1-((3′-ethoxy-4′-(7-oxo-6,7-dihydro-3H-[1,2,3]triazolo[4,5-d]pyrimidin-5-yl)-[1,1′-biphenyl]-3-yl)methyl)cyclopropane-1-carboxylic acid]: the EC50 was not above 10 µM.

The compound `CCCNc1cc(-c2nc3[nH]nnc3c(=O)[nH]2)ccc1-c1ccc(C(=O)O)cc1` [Compound 291, 4′-(7-oxo-6,7-dihydro-3H-[1,2,3]triazolo[4,5-d]pyrimidin-5-yl)-2′-(propylamino)-[1,1′-biphenyl]-4-carboxylic acid] displayed an EC50 not above 10 µM.

Regarding `CCOc1cc(-c2cccc(NCCC(=O)O)c2)ccc1-c1nc2[nH]nnc2c(=O)[nH]1` [Compound 226, 3-((3′-Ethoxy-4′-(7-oxo-6,7-dihydro-3H-[1,2,3]triazolo[4,5-d]pyrimidin-5-yl)-[1,1′-biphenyl]-3-yl)amino)propanoic acid], the EC50 was not above 10 µM.

On to `CCOc1cc(-c2cccc(NC)c2)ccc1-c1nc2[nH]nnc2c(=O)[nH]1` [Compound 232, 5-(3-Ethoxy-3′-(methylamino)-[1,1′-biphenyl]-4-yl)-3,6-dihydro-7H-[1,2,3]triazolo[4,5-d]pyrimidin-7-one], for which the EC50 is not above 10 µM.

Turning to `CCOc1cc(-c2ccc(OCCN3CCCC3)c(CCC(=O)O)c2)ccc1-c1nc2[nH]nnc2c(=O)[nH]1` [Compound 318, 3-(3′-ethoxy-4′-(7-oxo-6,7-dihydro-3H-[1,2,3]triazolo[4,5-d]pyrimidin-5-yl)-4-(2-(pyrrolidin-1-yl)ethoxy)-[1,1′-biphenyl]-3-yl)propanoic acid], the EC50 is not above 10 µM.

As for `CCOc1cc(-c2ccc(OC(C)C)c(CC(C)C(=O)O)c2)ccc1-c1nc2[nH]nnc2c(=O)[nH]1` (single isomer, unassigned) [Compound 314, 3-(3′-ethoxy-4-isopropoxy-4′-(7-oxo-6,7-dihydro-3H-[1,2,3]triazolo[4,5-d]pyrimidin-5-yl)-[1,1′-biphenyl]-3-yl)-2-methylpropanoic acid], the concentration giving a half-maximal response (EC50) was not above 10 µM.

`CCCC(Oc1cccc(-c2ccc(-c3nc4[nH]nnc4c(=O)[nH]3)c(OCC)c2)c1)C(=O)O` (stereo not drawn) [Compound 248, 2-((3′-ethoxy-4′-(7-oxo-6,7-dihydro-3H-[1,2,3]triazolo[4,5-d]pyrimidin-5-yl)-[1,1′-biphenyl]-3-yl)oxy)pentanoic acid] came in with an EC50 not above 10 µM.

In turn, `CCOc1cc(-c2ccc3c(c2)CC(C)(C)C(=O)O3)ccc1-c1nc2[nH]nnc2c(=O)[nH]1` [Compound 305, 5-(4-(3,3-dimethyl-2-oxochroman-6-yl)-2-ethoxyphenyl)-3,6-dihydro-7H-[1,2,3]triazolo[4,5-d]pyrimidin-7-one] gave an EC50 not above 10 µM.

The compound `CCOc1cc(-c2ccc(F)c(O[C@@H](C)C(=O)O)c2)ccc1-c1nc2[nH]nnc2c(=O)[nH]1` [Compound 265, (S)-2-((3′-ethoxy-4-fluoro-4′-(7-oxo-6,7-dihydro-3H-[1,2,3]triazolo[4,5-d]pyrimidin-5-yl)-[1,1′-biphenyl]-3-yl)oxy)propanoic acid] had a 50% effective concentration (EC50) not above 10 µM.

The same test, now with this note: at 5.6 μM; Table 2.
On to `CCOC(=O)C(C)(C)Cc1cccc(-c2ccc(-c3nc4[nH]nnc4c(=O)[nH]3)c(OCC)c2)c1` [Compound 242, ethyl 3-(3′-ethoxy-4′-(7-oxo-6,7-dihydro-3H-[1,2,3]triazolo[4,5-d]pyrimidin-5-yl)-[1,1′-biphenyl]-3-yl)-2,2-dimethylpropanoate], for which the “% inhibition at 5.6 μM” value was 30% inhibition at.

Still in this test, the particulars now being: at 50 μM; Table 2.
Take `CN(C)CCOc1cc(-c2ccc(C(=O)O)cc2)ccc1-c1nc2[nH]nnc2c(=O)[nH]1` [Compound 228, 3′-(2-(Dimethylamino)ethoxy)-4′-(7-oxo-6,7-dihydro-3H-[1,2,3]triazolo[4,5-d]pyrimidin-5-yl)-[1,1′-biphenyl]-4-carboxylic acid]: the “% inhibition at 50 μM” value is given as 16% inhibition at.
